Assay results published in the supplement of paper PMC10307832.

What follows are cell lines tested with COc1cc([C@@H]2c3cc4c(cc3[C@@H](O[C@@H]3O[C@@H]5CO[C@@H](C)O[C@H]5[C@H](O)[C@H]3O)[C@H]3COC(=O)[C@H]23)OCO4)cc(OC)c1O [Etoposide] + CC(=O)Nc1cccc(-n2c(=O)n(C3CC3)c(=O)c3c(Nc4ccc(I)cc4F)n(C)c(=O)c(C)c32)c1 [Trametinib] (partner 0.02 µM) (assay: relative viability (nuclei count vs DMSO), 5 days (fraction); higher = more cells survive). Details: first compound 0.01 µM.
Outline: (§1)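 Lung cancer cell lines were seeded in 1536-well plates and dosed by pin tool the next day, with either a single drug or a fixed anchor-drug dose combined with five library-drug doses (not always all listed) spaced in √10 steps. Five days later, one step fixed the cells and stained their nuclei (final 0.05% Triton X-100, 1% formaldehyde, 1 ug/ml Hoechst), and nuclei were counted on 4× images. Relative viability is the nuclei count in treated wells divided by the count in vehicle wells, and each value is the median of duplicate plates.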

In order of rising relative viability:
1. NCI-H460  0.173
2. LCLC-97TM1  0.22
3. NCI-H3122  0.23
4. NCI-H2009  0.239
5. HOP-62  0.348
6. NCI-H727  0.395
7. NCI-H441  0.481
8. LU99A  0.493
9. NCI-H520  0.597
10. HARA  0.628
11. NCI-H1734  0.655
12. A-427  0.695
13. BEN  0.919
14. HCC-44  1.01

Same assay, conditions: first compound 0.03162 µM

In order of rising relative viability:
1. NCI-H460  0.14
2. LCLC-97TM1  0.218
3. NCI-H3122  0.223
4. NCI-H2009  0.286
5. HOP-62  0.395
6. NCI-H727  0.43
7. NCI-H441  0.455
8. HARA  0.638
9. NCI-H520  0.645
10. LU99A  0.672
11. NCI-H1734  0.74
12. A-427  0.812
13. LOU-NH91  0.817
14. BEN  1.01
15. HCC-44  1.21

Same assay, conditions: first compound 0.1 µM

In order of falling relative viability:
1. HCC-44  1.09
2. HARA  1.01
3. LOU-NH91  0.659
4. A-427  0.621
5. NCI-H1734  0.499
6. NCI-H520  0.414
7. NCI-H441  0.394
8. LU99A  0.391
9. NCI-H727  0.378
10. HOP-62  0.325
11. LCLC-97TM1  0.174
12. NCI-H2009  0.168
13. NCI-H3122  0.153
14. NCI-H460  0.0869

Same assay, conditions: first compound 0.3162 µM

In order of falling relative viability:
1. BEN  1.05
2. HCC-44  0.97
3. LOU-NH91  0.758
4. NCI-H520  0.617
5. HARA  0.592
6. A-427  0.47
7. NCI-H1734  0.461
8. HOP-62  0.343
9. NCI-H727  0.338
10. LU99A  0.312
11. NCI-H441  0.26
12. NCI-H2009  0.246
13. NCI-H3122  0.23
14. LCLC-97TM1  0.126
15. NCI-H460  0.0497

Same assay, conditions: first compound 1 µM

In order of falling relative viability:
1. BEN  0.852
2. HCC-44  0.739
3. LOU-NH91  0.552
4. NCI-H520  0.49
5. NCI-H1734  0.452
6. NCI-H727  0.355
7. HARA  0.353
8. HOP-62  0.316
9. A-427  0.296
10. NCI-H2009  0.216
11. NCI-H3122  0.215
12. LU99A  0.206
13. NCI-H441  0.141
14. LCLC-97TM1  0.115
15. NCI-H460  0.021

What follows are cell lines tested with CC1=C(N=C(N=C1N)[C@H](CC(=O)N)NC[C@@H](C(=O)N)N)C(=O)N[C@@H]([C@H](C2=CN=CN2)OC3C(C(C(C(O3)CO)O)O)OC4C(C(C(C(O4)CO)O)OC(=O)N)O)C(=O)N[C@H](C)[C@H]([C@H](C)C(=O)N[C@@H]([C@@H](C)O)C(=O)NCCC5=NC(=CS5)C6=NC(=CS6)C(=O)NCCC[S+](C)C)O [Bleomycin] + Cc1nc(NC(=O)N2CCC[C@H]2C(N)=O)sc1-c1ccnc(C(C)(C)C(F)(F)F)c1 [Alpelisib] (partner 2 µM) in the same assay as above. Details: first compound 0.01 µM; main component drawn.
Outline: as §1

In order of falling relative viability:
1. NCI-H2009  1.05
2. BEN  1.01
3. A-427  0.983
4. NCI-H520  0.759
5. NCI-H3122  0.737
6. HARA  0.682
7. NCI-H1734  0.626
8. LOU-NH91  0.604
9. NCI-H727  0.499
10. HCC-44  0.45
11. HOP-62  0.412
12. LU99A  0.345
13. NCI-H460  0.294
14. LCLC-97TM1  0.162

Same assay, conditions: first compound 0.03162 µM; main component drawn

In order of rising relative viability:
1. LCLC-97TM1  0.186
2. NCI-H460  0.243
3. HCC-44  0.27
4. LU99A  0.332
5. HOP-62  0.458
6. LOU-NH91  0.498
7. NCI-H1734  0.519
8. NCI-H727  0.529
9. NCI-H441  0.699
10. NCI-H3122  0.709
11. HARA  0.784
12. NCI-H520  0.796
13. BEN  0.921
14. A-427  1.05
15. NCI-H2009  1.16

Same assay, conditions: first compound 0.1 µM; main component drawn

In order of rising relative viability:
1. LCLC-97TM1  0.134
2. NCI-H460  0.136
3. HOP-62  0.185
4. HCC-44  0.224
5. LU99A  0.239
6. LOU-NH91  0.469
7. NCI-H727  0.491
8. NCI-H1734  0.514
9. NCI-H441  0.645
10. NCI-H3122  0.778
11. HARA  0.818
12. NCI-H520  0.863
13. BEN  0.937
14. A-427  1.05
15. NCI-H2009  1.16

Same assay, conditions: first compound 0.3162 µM; main component drawn

In order of rising relative viability:
1. NCI-H460  0.0356
2. HOP-62  0.116
3. LCLC-97TM1  0.127
4. LU99A  0.137
5. HCC-44  0.212
6. NCI-H1734  0.27
7. NCI-H727  0.293
8. NCI-H3122  0.378
9. LOU-NH91  0.388
10. HARA  0.415
11. NCI-H441  0.444
12. A-427  0.48
13. NCI-H520  0.543
14. BEN  0.762
15. NCI-H2009  0.84

Same assay, conditions: first compound 1 µM; main component drawn

In order of falling relative viability:
1. BEN  0.738
2. NCI-H2009  0.531
3. NCI-H520  0.402
4. HARA  0.373
5. NCI-H3122  0.349
6. LOU-NH91  0.322
7. NCI-H727  0.308
8. NCI-H441  0.279
9. NCI-H1734  0.216
10. A-427  0.203
11. HCC-44  0.162
12. HOP-62  0.13
13. LU99A  0.118
14. LCLC-97TM1  0.101
15. NCI-H460  0.017
